# Results taken from ChEMBL document CHEMBL1150461, “Synthesis of new 3-thiosubstituted carbacephem antibiotics and their activity against penicillin resistant Streptococcus pneumoniae” (1997).
# Legend:
# Type in all cases: functional
# Streptococcus pneumoniae [1] = test: In vitro minimum inhibitory concentration against penicillin resistant Streptococcus pneumoniae strains (PRSP) (number of strains = 5).
# Streptococcus pneumoniae [2] = test: In vitro minimum inhibitory concentration against penicillin susceptible Streptococcus pneumoniae strains (number of strains = 3).
# Streptococcus pneumoniae [3] = test: In vitro minimum inhibitory concentration against penicillin intermediate Streptococcus pneumoniae strains (number of strains = 3).
SMILES,MIC (Streptococcus pneumoniae [1]) [µg/mL],MIC (Streptococcus pneumoniae [2]) [µg/mL],MIC (Streptococcus pneumoniae [3]) [µg/mL]
N[C@@H](C(=O)N[C@@H]1C(=O)N2C(C(=O)O)=C(Sc3ccccn3)CC[C@H]12)c1ccccc1,2,0.06,1
CCSc1nnc(SC2=C(C(=O)O)N3C(=O)[C@@H](NC(=O)[C@H](N)c4ccccc4)[C@H]3CC2)s1,0.5,0.03,0.25
N[C@@H](C(=O)N[C@@H]1C(=O)N2C(C(=O)O)=C(Sc3ccncc3)CC[C@H]12)c1ccccc1,4,0.12,0.25
N[C@@H](C(=O)N[C@@H]1C(=O)N2C(C(=O)O)=C(Sc3cccs3)CC[C@H]12)c1ccccc1,16,0.25,2
N[C@@H](C(=O)N[C@@H]1C(=O)N2C(C(=O)O)=C(Sc3nncs3)CC[C@H]12)c1ccccc1,1,0.06,0.25
N[C@@H](C(=O)N[C@@H]1C(=O)N2C(C(=O)O)=C(Sc3ccccc3CO)CC[C@H]12)c1ccccc1,4,0.06,2
C[n+]1ccc(SC2=C(C(=O)[O-])N3C(=O)[C@@H](NC(=O)[C@H](N)c4ccccc4)[C@H]3CC2)cc1,4,0.25,1
N[C@@H](C(=O)N[C@@H]1C(=O)N2C(C(=O)O)=C(Sc3ccccc3Br)CC[C@H]12)c1ccccc1,2,0.06,0.25
N[C@@H](C(=O)N[C@@H]1C(=O)N2C(C(=O)O)=C(Sc3nnc(SCC4CC4)s3)CC[C@H]12)c1ccccc1,0.25,< 0.03,0.06
CSC1=C(C(=O)O)N2C(=O)[C@@H](NC(=O)[C@H](N)c3ccccc3)[C@H]2CC1,> 16,1,8
N[C@@H](C(=O)N[C@@H]1C(=O)N2C(C(=O)O)=C(Sc3cnns3)CC[C@H]12)c1ccccc1,1,0.06,0.25
Nc1nnc(SC2=C(C(=O)O)N3C(=O)[C@@H](NC(=O)[C@H](N)c4ccccc4)[C@H]3CC2)s1,2,0.06,0.5
Cn1ccnc1SC1=C(C(=O)O)N2C(=O)[C@@H](NC(=O)[C@H](N)c3ccccc3)[C@H]2CC1,> 16,1,8
N[C@@H](C(=O)N[C@@H]1C(=O)N2C(C(=O)O)=C(Sc3ncccn3)CC[C@H]12)c1ccccc1,4,0.12,0.5
N[C@@H](C(=O)N[C@@H]1C(=O)N2C(C(=O)O)=C(Sc3ccccc3)CC[C@H]12)c1ccccc1,4,0.06,1
N=C(N)SCc1ccccc1SC1=C(C(=O)O)N2C(=O)[C@@H](NC(=O)[C@H](N)c3ccccc3)[C@H]2CC1,0.5,0.02,0.25
Cn1cnnc1SC1=C(C(=O)O)N2C(=O)[C@@H](NC(=O)[C@H](N)c3ccccc3)[C@H]2CC1,> 16,0.5,4
N[C@@H](C(=O)N[C@@H]1C(=O)N2C(C(=O)O)=C(Sc3nc4ccccc4s3)CC[C@H]12)c1ccccc1,8,0.5,4
Cc1nnc(SC2=C(C(=O)O)N3C(=O)[C@@H](NC(=O)[C@H](N)c4ccccc4)[C@H]3CC2)s1,1,0.03,1
CSc1nnc(SC2=C(C(=O)O)N3C(=O)[C@@H](NC(=O)[C@H](N)c4ccccc4)[C@H]3CC2)s1,0.25,< 0.03,0.06
N[C@@H](C(=O)N[C@@H]1C(=O)N2C(C(=O)O)=C(Sc3nccs3)CC[C@H]12)c1ccccc1,4,0.12,2
N[C@@H](C(=O)N[C@@H]1C(=O)N2C(C(=O)O)=C(Cl)CC[C@H]12)c1ccccc1 [LORACARBEF ANHYDROUS],> 16,2,8
